Experimental data published in patent US4068074A, “Cephalosporin derivatives having at the 3-position of the cephem ring a heterocyclic thiomethyl group with a carboxy or sulfo group and at the 7-position of the cephem ring an α-heterocylic acylaminophenyl-acetamide group” (priority 1974, dated 1978).
In brackets after ≈: the same amount, converted by molar mass. Read-outs that look alike come from different tables or passages of the source.

How the values were obtained:
[1] = system: Staphylococcus Shimanishi; assay: MIC against bacteria (Table I), strain (17); type: cell-based
From the text: (§1) Now, for illustrating the excellent pharmacological effects of the compounds of this invention, the values of MIC (γ/ml.) of the compounds against various bacteria are shown in Table 1, in which the compounds of this invention used are shown by example numbers.
(17) Staphylococcus Shimanishi

[2] = system: Pseudomonas aeruginosa ATCC 8689; assay: MIC against bacteria (Table I), strain (4); type: cell-based; conditions: ATCC8689; (4) Pseudomonas aeruginosa ATCC 8689; read-out: MIC
From the text: as §1
(4) Pseudomonas aeruginosa ATCC 8689

[3] = system: Shigella flexneri 2a 1675; assay: MIC against bacteria (Table I), strain (11); type: cell-based; conditions: 2A1675; (11) Shigella flexneri 2a 1675; read-out: MIC
From the text: as §1

[4] = system: Staphylococcus aureus 209P; assay: MIC against bacteria (Table I), strain (16); type: cell-based
From the text: as §1
(16) Staphylococcus aureus 209P

[5] = Residual antibacterial activity after incubation with 90% plasma (Table 4); type: in vitro ADME, male Sprague-Dowley rat; conditions: 90% rat plasma
Description: (§2) The relation between the reaction period of time and the antibacterial activity (residual activity, %) when these compounds are incubated with the plasma and the liver homogenate of a male Sprague-Dowley rat is shown in Table 4. The residual antibacterial activity was measured by a thin-layer cup method according to Bacillus subtilis ATCC 6633.
A*Residual activity (%) when incubated with 90% plasma.

Shigella sonnei II 37148 = assay: MIC against bacteria (Table I), strain (12); type: cell-based; conditions: II37148; (12) Shigella sonnei II 37148; read-out: MIC
From the text: as §1

[6] = system: Pseudomonas aeruginosa 99 (Gentamycin resistant); assay: MIC against bacteria (Table I), strain (5); type: cell-based
From the text: as §1
(5) Pseudomonas aeruginosa 99 (Gentamycin resistant)

[7] = Solubility of salts in water (Table 2); type: physicochemical; conditions: disodium salt, water, showing pH 7.4; read-out: Solubility: disodium salt dissolved in water in an amount of
From the text: An advantage of the compounds of this invention is that the salts, for example, sodium salts of these compounds are readily soluble in water at pH of living bodies, which makes them suitable for injections at high concentration. The solubility of these compounds are illustrated in Table 2 together with a control example.

Staphylococcus Onuma = assay: MIC against bacteria (Table I), strain (18); type: cell-based
From the text: as §1
(18) Staphylococcus Onuma

[8] = system: Micrococcus flavus ATCC 10240; assay: MIC against bacteria (Table I), strain (15); type: cell-based; conditions: ATCC10240
From the text: as §1
(15) Micrococcus flavus ATCC 10240

[9] = system: Psuedomonas ovalis IMA 1002; assay: MIC against bacteria (Table I), strain (6); type: cell-based; conditions: (6) Psuedomonas ovalis IMA 1002; read-out: MIC
From the text: as §1
(6) Psuedomonas ovalis IMA 1002

[10] = system: Escherichia coli kauffmann 0-1; assay: MIC against bacteria (Table I), strain (7); type: cell-based; conditions: Escherichia coli
From the text: as §1
(7) Escherichia coli kauffmann 0-1

[11] = system: Bacillus subtilis ATCC 6633; assay: MIC against bacteria (Table I), strain (14); type: cell-based; conditions: ATCC6633; (14) Bacillus subtilis ATCC 6633; read-out: MIC
From the text: as §1
(14) Bacillus subtilis ATCC 6633

[12] = system: Bacillus megatherium 10778; assay: MIC against bacteria (Table I), strain (13); type: cell-based; conditions: (13) Bacillus megatherium 10778; read-out: MIC
From the text: as §1

[13] = system: Klebsiella pneumoniae ATCC 10031; assay: MIC against bacteria (Table I), strain (8); type: cell-based; conditions: ATCC10031
From the text: as §1
(8) Klebsiella pneumoniae ATCC 10031

[14] = system: Proteus mirabilis IXM OM-19; assay: MIC against bacteria (Table I), strain (3); type: cell-based; conditions: IXMOM19; (3) Proteus mirabilis IXM OM-19; read-out: MIC
From the text: as §1
(3) Proteus mirabilis IXM OM-19

Salmonella typhi H901 W = assay: MIC against bacteria (Table I), strain (9); type: cell-based; conditions: Salmonella enterica, TYPHI
From the text: as §1
(9) Salmonella typhi H901 W

Proteus vulgaris OXK US = assay: MIC against bacteria (Table I), strain (1); type: cell-based; conditions: (1) Proteus vulgaris OXK US; read-out: MIC
From the text: as §1
(1) Proteus vulgaris OXK US

Proteus vulgaris 0X 19US = assay: MIC against bacteria (Table I), strain (2); type: cell-based; conditions: 0X19US
From the text: as §1
(2) Proteus vulgaris 0X 19US

[15] = Residual antibacterial activity after incubation with 10% liver homogenate (Table 4); type: in vitro ADME, male Sprague-Dowley rat; conditions: 10% rat liver homogenate
Description: as §2
B*Residual activity (%) when incubated with 10% liver homogenate.

Salmonella enteritidis = assay: MIC against bacteria (Table I), strain (10); type: cell-based; conditions: Salmonella enterica
From the text: as §1
(10) Salmonella enteritidis

[16] = (17) Staphylococcus Shimanishi, read-out: MIC
[17] = (5) Pseudomonas aeruginosa 99 (Gentamycin resistant), read-out: MIC
[18] = (18) Staphylococcus Onuma, read-out: MIC
[19] = (8) Klebsiella pneumoniae ATCC 10031, read-out: MIC
[20] = (2) Proteus vulgaris 0X 19US, read-out: MIC
[21] = (10) Salmonella enteritidis, read-out: MIC

| SMILES | MIC [1, 16] | MIC [2] | MIC [3] | MIC ([4]; Staphylococcus aureus, 209P) | MIC (Shigella sonnei II 37148) | MIC [6, 17] | solubility [7] | MIC (Staphylococcus Onuma; [18]) | MIC [9] | MIC [10] | MIC [11] | MIC [12] | MIC [13, 19] | MIC [14] | MIC (Salmonella typhi H901 W) | MIC (Proteus vulgaris OXK US) | MIC (Proteus vulgaris 0X 19US; [20]) | MIC ([8]; Micrococcus flavus) | MIC (Salmonella enteritidis; [21]) | further results |
| --- | --- | --- | --- | --- | --- | --- | --- | --- | --- | --- | --- | --- | --- | --- | --- | --- | --- | --- | --- | --- |
| O=C(O)CCc1nnc(SCC2=C(C(=O)O)N3C(=O)[C@@H](NC(=O)[C@H](NC(=O)c4cnccc4O)c4ccccc4)[C@H]3SC2)s1 [Example 6, 7-[D-α-(4-hydroxynicotinoylamido)-α-phenylacetamido]-3-(5-carboxyethyl-1,3,4-thiadiazol-2-yl)thiomethyl-Δ^3-cephem-4-carboxylic acid] | 6.25 µg/mL (≈ 9.52 µM) | 12.5 µg/mL (≈ 19 µM) | 0.78 µg/mL (≈ 1.19 µM) | 1.56 µg/mL (≈ 2.38 µM) | 3.13 µg/mL (≈ 4.77 µM) | 6.25 µg/mL (≈ 9.52 µM) | > 200 mg/mL | 12.5 µg/mL (≈ 19 µM) | 6.25 µg/mL (≈ 9.52 µM) | 3.13 µg/mL (≈ 4.77 µM) | 0.39 µg/mL (≈ 0.594 µM) | 0.39 µg/mL (≈ 0.594 µM) | 6.25 µg/mL (≈ 9.52 µM) | 0.39 µg/mL (≈ 0.594 µM) | 1.56 µg/mL (≈ 2.38 µM) | < 0.09 µg/mL | < 0.09 µg/mL | – | – | remaining at 0.25 h ([5]; 90% plasma, 15 minute): 92%; remaining at 0.5 h ([5]; 90% plasma, 30 minute): 102%; remaining at 1.5 h ([5]; 90% plasma, 90 minute): 102%; Residual activity ([5]; 0 minute): 100%; MIC ([8]; (15) Micrococcus flavus ATCC 10240, read-out: MIC): 6.25 µg/mL (≈ 9.52 µM); remaining at 0.25 h ([15]; 10% liver homogenate, 15 minute, read-out: Residual activity): 95.7%; remaining at 0.5 h ([15]; 10% liver homogenate, 30 minute, read-out: Residual activity): 89.1%; remaining at 1.5 h ([15]; 10% liver homogenate, 90 minute, read-out: Residual activity): 91.3%; Residual activity ([15]; 0 minute): 100%; MIC (Salmonella enteritidis; ENTERITIDIS): 0.39 µg/mL (≈ 0.594 µM) |
| O=C(O)Cc1nnc(SCC2=C(C(=O)O)N3C(=O)[C@@H](NC(=O)[C@H](NC(=O)c4cnccc4O)c4ccccc4)[C@H]3SC2)s1 [Example 25, 7-[D-α-(4-hydroxynicotinoylamido)-α-phenylacetamido]-3-(5-carboxymethyl-1,3,4-thiadiazol-2-yl)thiomethyl-Δ^3-cephem-4-carboxylic acid] | 3.13 µg/mL (≈ 4.87 µM) | 12.5 µg/mL (≈ 19.4 µM) | 1.56 µg/mL (≈ 2.43 µM) | – | 6.25 µg/mL (≈ 9.72 µM) | – | > 200 mg/mL | – | 12.5 µg/mL (≈ 19.4 µM) | 3.13 µg/mL (≈ 4.87 µM) | 0.39 µg/mL (≈ 0.607 µM) | 0.39 µg/mL (≈ 0.607 µM) | – | 0.39 µg/mL (≈ 0.607 µM) | 0.39 µg/mL (≈ 0.607 µM) | < 0.09 µg/mL | – | 6.25 µg/mL (≈ 9.72 µM) | 0.19 µg/mL (≈ 0.296 µM) | MIC ([4]; (16) Staphylococcus aureus 209P, read-out: MIC): 0.78 µg/mL (≈ 1.21 µM); MIC ([6]; Pseudomonas aeruginosa): 6.25 µg/mL (≈ 9.72 µM); MIC (Staphylococcus Onuma; Staphylococcus): 6.25 µg/mL (≈ 9.72 µM); MIC ([13]; Klebsiella pneumoniae): 6.25 µg/mL (≈ 9.72 µM); MIC (Proteus vulgaris 0X 19US; Proteus vulgaris): 1.56 µg/mL (≈ 2.43 µM) |
| COc1ccncc1C(=O)N[C@@H](C(=O)N[C@@H]1C(=O)N2C(C(=O)O)=C(CSc3nnc(SCC(=O)O)s3)CS[C@H]12)c1ccccc1 [Example 26, 7-[D-α-(4-methoxynicotinoylamido)-α-phenylacetamido]-3-(5-carboxymethylthio-1,3,4-thiadiazole-2-yl)thiomethyl-Δ^3-cephem-4-carboxylic acid] | – | 12.5 µg/mL (≈ 18.1 µM) | 3.13 µg/mL (≈ 4.54 µM) | 1.56 µg/mL (≈ 2.26 µM) | 6.25 µg/mL (≈ 9.07 µM) | 12.5 µg/mL (≈ 18.1 µM) | > 200 mg/mL | 12.5 µg/mL (≈ 18.1 µM) | 25 µg/mL (≈ 36.3 µM) | 6.25 µg/mL (≈ 9.07 µM) | 0.78 µg/mL (≈ 1.13 µM) | 0.78 µg/mL (≈ 1.13 µM) | 12.5 µg/mL (≈ 18.1 µM) | 0.78 µg/mL (≈ 1.13 µM) | 6.25 µg/mL (≈ 9.07 µM) | 0.19 µg/mL (≈ 0.276 µM) | 0.39 µg/mL (≈ 0.566 µM) | 6.25 µg/mL (≈ 9.07 µM) | 1.56 µg/mL (≈ 2.26 µM) | MIC ([1]; Staphylococcus): 6.25 µg/mL (≈ 9.07 µM) |
